Earlier results as cited in patent US20230321008A1, “INHIBITORS OF ACID SPHINGOMYELINASE FOR PREVENTING AND TREATING THE COVID-19 DISEASE” (priority 2020, published 2023).

Target: T1, acid sphingomyelinase (ASM) (Homo sapiens, UniProt P17405)
T1 sequence (P17405 47-631): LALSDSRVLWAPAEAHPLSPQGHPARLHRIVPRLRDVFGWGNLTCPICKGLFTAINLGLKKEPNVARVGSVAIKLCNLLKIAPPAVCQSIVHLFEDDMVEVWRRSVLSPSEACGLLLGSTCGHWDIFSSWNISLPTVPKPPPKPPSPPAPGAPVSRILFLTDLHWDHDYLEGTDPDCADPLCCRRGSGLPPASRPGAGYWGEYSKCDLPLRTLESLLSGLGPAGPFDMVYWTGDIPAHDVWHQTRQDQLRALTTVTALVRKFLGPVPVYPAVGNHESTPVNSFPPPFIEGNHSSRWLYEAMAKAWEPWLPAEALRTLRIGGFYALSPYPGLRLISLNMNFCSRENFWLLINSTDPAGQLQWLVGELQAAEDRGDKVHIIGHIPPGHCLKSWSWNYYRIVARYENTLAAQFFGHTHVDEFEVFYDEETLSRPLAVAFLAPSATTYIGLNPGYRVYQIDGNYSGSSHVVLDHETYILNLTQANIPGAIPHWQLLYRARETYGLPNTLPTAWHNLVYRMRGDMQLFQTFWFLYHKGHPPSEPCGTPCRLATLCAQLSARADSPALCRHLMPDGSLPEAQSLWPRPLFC
Conditions: cited from earlier work

SMILES | In vitro inhibition of acid sphingomyelinase (in words)
COc1ccccc1OCCNCC(O)COc1cccc2[nH]c3ccccc3c12 (stereo not shown) [Carvedilol, carvedilol] | in vitro inhibit acid sphingomyelinase with varying degrees
CN(C)CC/C=C1/c2ccccc2Sc2ccc(Cl)cc21 [Chlorprothixene] | in vitro inhibit acid sphingomyelinase with varying degrees
CN(C)CCCN1c2ccccc2CCc2ccc(Cl)cc21 [Clomipramine, clomipramine] | in vitro inhibit acid sphingomyelinase with varying degrees
OCCN1CCN(CC/C=C2/c3ccccc3Sc3ccc(C(F)(F)F)cc32)CC1 [Flupenthixol] | in vitro inhibit acid sphingomyelinase with varying degrees
OCCN1CCN(CCCN2c3ccccc3Sc3ccc(C(F)(F)F)cc32)CC1 [Fluphenazine] | in vitro inhibit acid sphingomyelinase with varying degrees
OC1(c2ccc(Cl)c(C(F)(F)F)c2)CCN(CCCC(c2ccc(F)cc2)c2ccc(F)cc2)CC1 [Penfluridol] | in vitro inhibit acid sphingomyelinase with varying degrees
OCCN1CCN(CCCN2c3ccccc3Sc3ccc(Cl)cc32)CC1 [Perphenazine] | in vitro inhibit acid sphingomyelinase with varying degrees
CN(C)CCCN1c2ccccc2Sc2ccccc21 [Promazine] | in vitro inhibit acid sphingomyelinase with varying degrees
O=C1NCCN1CCN1CCC(c2cn(-c3ccc(F)cc3)c3ccc(Cl)cc23)CC1 [Sertindole] | in vitro inhibit acid sphingomyelinase with varying degrees
CSc1ccc2c(c1)N(CCC1CCCCN1C)c1ccccc1S2 (stereo not shown) [Thioridazin] | in vitro inhibit acid sphingomyelinase with varying degrees
CN1CCN(CCCN2c3ccccc3Sc3ccc(C(F)(F)F)cc32)CC1 [Trifluoperazine] | in vitro inhibit acid sphingomyelinase with varying degrees
CN(C)CCCN1c2ccccc2Sc2ccc(C(F)(F)F)cc21 [Triflupromazine] | in vitro inhibit acid sphingomyelinase with varying degrees
CCN(CCCc1ccccc1)CCCc1ccccc1 [alverine] | in vitro inhibit acid sphingomyelinase with varying degrees
CCN(CC)CCCN(c1ccccc1)C1Cc2ccccc2C1 [aprindine] | in vitro inhibit acid sphingomyelinase with varying degrees
COc1ccc(CCN2CCC(Nc3nc4ccccc4n3Cc3ccc(F)cc3)CC2)cc1 [astemizole] | in vitro inhibit acid sphingomyelinase with varying degrees
CN1[C@@H]2CC[C@H]1C[C@@H](OC(c1ccccc1)c1ccccc1)C2 [benztropine] | in vitro inhibit acid sphingomyelinase with varying degrees
CC(C)COCC(CN(Cc1ccccc1)c1ccccc1)N1CCCC1 (stereo not shown) [bepridil] | in vitro inhibit acid sphingomyelinase with varying degrees
OC(CCN1CCCCC1)(c1ccccc1)C1CC2C=CC1C2 (stereo not shown) [biperidene] | in vitro inhibit acid sphingomyelinase with varying degrees
CCN(CC)CCNC(C(=O)OCCC(C)C)c1ccccc1 (stereo not shown) [camylofin] | in vitro inhibit acid sphingomyelinase with varying degrees
CC(C)/N=c1\cc2n(-c3ccc(Cl)cc3)c3ccccc3nc-2cc1Nc1ccc(Cl)cc1 [clofazimine] | in vitro inhibit acid sphingomyelinase with varying degrees

SMILES | In vitro inhibition of acid sphingomyelinase (in words)
Clc1ccc(C(OCCN2CCCCC2)c2ccccc2)cc1 (stereo not shown) [cloperastine] | in vitro inhibit acid sphingomyelinase with varying degrees
C[C@H]1[C@H]2CC[C@H]3[C@@H]4CC=C5C[C@@H](N(C)C)CC[C@]5(C)[C@H]4CC[C@]23CN1C [conessine] | in vitro inhibit acid sphingomyelinase with varying degrees
CN(C)CCC=C1c2ccccc2C=Cc2ccccc21 [cyclobenzaprine] | in vitro inhibit acid sphingomyelinase with varying degrees
COc1cc(C(=O)OCCCN2CCCN(CCCOC(=O)c3cc(OC)c(OC)c(OC)c3)CC2)cc(OC)c1OC [dilazep] | in vitro inhibit acid sphingomyelinase with varying degrees
CN(C)CCC=C1c2ccccc2COc2ccccc21 [doxepin] | in vitro inhibit acid sphingomyelinase with varying degrees
CC[C@H]1CN2CCc3cc(OC)c(OC)cc3[C@@H]2C[C@@H]1C[C@H]1NCCc2cc(OC)c(OC)cc21 [emetine] | in vitro inhibit acid sphingomyelinase with varying degrees
CC(NCCC(c1ccccc1)c1ccccc1)c1ccccc1 (stereo not shown) [fendiline] | in vitro inhibit acid sphingomyelinase with varying degrees
Fc1ccc(C(c2ccc(F)cc2)N2CCN(C/C=C/c3ccccc3)CC2)cc1 [flunarizine] | in vitro inhibit acid sphingomyelinase with varying degrees
CN(CCCN1c2ccccc2CCc2ccccc21)CC(=O)c1ccc(Cl)cc1 [lofepramine] | in vitro inhibit acid sphingomyelinase with varying degrees
CCN(CCCCOC(=O)c1ccc(OC)c(OC)c1)C(C)Cc1ccc(OC)cc1 (stereo not shown) [mebeverine] | in vitro inhibit acid sphingomyelinase with varying degrees
CN1CCc2c(c3ccccc3n2Cc2ccccc2)C1 [mebhydrolin] | in vitro inhibit acid sphingomyelinase with varying degrees
COCC(=O)O[C@]1(CCN(C)CCCc2nc3ccccc3[nH]2)CCc2cc(F)ccc2[C@@H]1C(C)C [mibefradil] | in vitro inhibit acid sphingomyelinase with varying degrees
CN1CCN2c3ncccc3Cc3ccccc3C2C1 (stereo not shown) [mirtazapine] | there are discrepancies whether citalopram, venlafaxine and mirtazapine do have in vitro FIASMA effect
CNCCC=C1c2ccccc2CCc2ccccc21 [nortriptyline] | in vitro inhibit acid sphingomyelinase with varying degrees
C1CCC(C(CC2CCCCN2)C2CCCCC2)CC1 (stereo not shown) [perhexiline] | in vitro inhibit acid sphingomyelinase with varying degrees
CN1CCC(=C2c3ccccc3Sc3ccccc32)CC1 [pimethixene] | in vitro inhibit acid sphingomyelinase with varying degrees
CCN(CC)C(C)CN1c2ccccc2Sc2ccccc21 (stereo not shown) [profenamine] | in vitro inhibit acid sphingomyelinase with varying degrees
CC(CN1c2ccccc2Sc2ccccc21)N(C)C (stereo not shown) [promethazine] | in vitro inhibit acid sphingomyelinase with varying degrees
CNCCCC1c2ccccc2C=Cc2ccccc21 [protriptyline] | in vitro inhibit acid sphingomyelinase with varying degrees
CCN(CC)CCCC(C)Nc1c2ccc(Cl)cc2nc2ccc(OC)cc12 (stereo not shown) [quinacrine] | in vitro inhibit acid sphingomyelinase with varying degrees
